One assay concerns the target KRAS-G12D (Homo sapiens, UniProt P01116, G12D). In words: SOS-catalyzed nucleotide exchange assay (Procedure A, TR-FRET), KRAS-G12D. Type of assay: biochemical. The procedure, abridged:
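Signal ratio (520/495 nm, excitation 340 nm) reports Bodipy-GDP retention on biotinylated RAS after SOS-catalyzed exchange with 3 mM GTP. SOS was 40 nM, except 160 nM for G12V. Room-temperature exchange lasted 60 min (90 min for G12V), following a 60 min compound preincubation.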
For orientation: Time-resolved FRET reads energy transfer from a long-lived donor to a nearby acceptor.

The next assay has as its target KRAS-G12V (Homo sapiens, UniProt P01116, G12V). The assay is described as follows: SOS-catalyzed nucleotide exchange assay (Procedure A, TR-FRET), KRAS-G12V. Type of assay: biochemical. The procedure, abridged: (§1)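 RAS (G12C carries C51S/C80L/C118S) loaded with Bodipy-GDP, complexed with Tb-streptavidin; cpd 60 min RT; + SOS/3 mM GTP. G12C 3/40 nM, WT 1/40, NRAS 1.25/40 nM RAS/SOS, 60 min; G12V 1.25/160 nM, 90 min. Normalized to DMSO and saturating inhibitor; 4PL fit.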

The subject of the next assay is AsPC-1 cells. In words: Cellular phospho-ERK assay, AsPC-1 cells (homozygous KRAS-G12D). Type of assay: cell-based. As to conditions: Homo sapiens, read-out: AsPC1 pERK IC50. The gist of the method: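 Overnight-plated cells on collagen received test compound (up to 30 μM final, threefold steps, ten concentrations) for two hours. After lysis at room temperature, phosphorylated and total ERK were quantified together by Alpha SureFire, and IC50 is based on the phospho-to-total signal ratio.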

The target of assay [1] is KRAS-G12C (C51S/C80L/C118S) (Homo sapiens, UniProt P01116, C118S/C51S/C80L/G12C). In words: SOS-catalyzed nucleotide exchange assay (Procedure A, TR-FRET), KRAS-G12C. Type of assay: biochemical. The text has this: (§2) Procedure for SOS-Catalyzed Nucleotide Exchange Assay for KRAS-WT, G12C/D/V, G13D, HRAS, and NRAS (Procedure A)
(§3) Recombinant KRAS-G12C protein used in this assay has an additional triple mutation (C51S/C80L/C118S). Whereas KRAS-WT, G12D/V, G13D, HRAS and NRAS are in context of their WT protein sequence background. Specifically, the SOS-catalyzed nucleotide exchange assay utilizes a preformed TR-FRET complex containing a specific biotinylated RAS protein (KRAS-WT, G12C/V/D, G13D, HRAS, NRAS; described above) with Bodipy-GDP, and Terbium-streptavidin. Compounds are preincubated with this complex for 60 minutes. Subsequently, recombinant human SOS protein and unlabeled GTP are added to initiate the exchange reaction. Small molecule inhibitors stabilize the Bodipy-GDP complex whereas the untreated protein rapidly exchanges Bodipy-GDP for unlabeled GTP resulting in reduced TR-FRET signal.
(§4) To assemble the preformed TR-FRET complexes, each biotinylated RAS protein is diluted to 2 μM in an EDTA Buffer (20 mM HEPES pH 7.5, 50 mM sodium chloride, 10 mM EDTA, and 0.01% Tween) and incubated at room temperature for one hour. This mixture is then further diluted to 90 nM in an Assay Buffer (20 mM HEPES pH 7.5, 150 mM sodium chloride, 10 mM magnesium chloride, and 0.005% Tween) containing 15 nM of Terbium-Streptavidin (Invitrogen, catalog #PV3577) and 900 nM of Bodipy-GDP (Invitrogen, catalog #G22360) and incubated at room temperature for six hours. It should be noted that this preformed TR-FRET complex for each of the RAS protein were made ahead of time, aliquoted and stored at −80° C. until the day of the experiment.
(§5) Each test compound (10 mM stock in DMSO) is diluted in DMSO to make a final-10-point, 3-fold dilution and is acoustically dispensed into a 384-well assay plate (Corning, catalog #3820) using an Echo 550 (Labcyte). Each well of the assay plate receives 3 μL of a specific 3×RAS preformed TR-FRET complex and 3 μL of Assay Buffer and is incubated at room temperature for 60 minutes (preincubation time). Each well then receives 3 μL of 3×recombinant human SOS protein and GTP (Sigma, G8877) in Assay Buffer and is incubated at room temperature for 30 minutes (G13D), 60 minutes (KRAS WT/G12C/D, H/NRAS) or 90 minutes for G12V. The final reaction in each well of 9 μL consists of 3 mM GTP, specific Ras and SOS proteins in the following concentrations: KRAS-G12C/SOS=3 nM/40 nM, KRAS-WT and G12D/SOS=1 nM/40 nM, KRAS-G12V/SOS=1.25 nM/160 nM. KRAS-G13D/SOS=1.25 nM/0 nM, HRAS and NRAS=1.25 nM/40 nM.
(§6) The time-resolved fluorescence resonance energy transfer (TR-FRET) signal is measured on an Envision (PerkinElmer) plate reader: Excitation filter=340 nm; emission 1=495 nm; emission2=520 nm; dichroic mirror=D400/D505; delay time=[…]. The signal of each well is determined as the ratio of the emission at 520 nm to that at 495 nm. Percent effect of each well is determined after normalization to control wells containing DMSO (no effect) or a saturating concentration of inhibitor (max effect). The apparent effect as a function of compound concentration is fit to a four-parameter logistic equation.

A further assay has as its target KRAS-G13D (Homo sapiens, UniProt P01116, G13D). The assay is described as follows: SOS-catalyzed nucleotide exchange assay (Procedure A, TR-FRET), KRAS-G13D. In kind it is biochemical.
Excerpt: as §2, §3, §4, §5, §6

Another assay concerns the target KRAS-WT (Homo sapiens, UniProt P01116). The assay is described as follows: SOS-catalyzed nucleotide exchange assay (Procedure A, TR-FRET), KRAS-WT. Type of assay: biochemical. The gist of the method:
as §1

The mark [2] stands for this setting: nucleotide exchange, read-out: KRAS G12D GNE IC50.
Where [3] appears, read: nucleotide exchange, read-out: KRAS G12V GNE IC50.
Setting [4] is: ASPC1, 2 h, 2 hours compound incubation.
The mark [5] stands for this setting: nucleotide exchange, Procedure A, read-out: KRAS G12C GNE IC50.
Where [6] appears, read: nucleotide exchange, Procedure A, read-out: KRAS G13D GNE IC50.
[7] abbreviates: nucleotide exchange, read-out: KRAS WT GNE IC50.

Read-outs that look alike come from different tables or passages of the source.

Consider nine compounds from patent publication US20260176289A1, “SMALL MOLECULE INHIBITORS OF KRAS PROTEINS” (Merck Sharp & Dohme LLC, priority 2022, published 2026).

Sequence of KRAS-WT (P01116 with tags, fused parts or gaps isoform P01116-2): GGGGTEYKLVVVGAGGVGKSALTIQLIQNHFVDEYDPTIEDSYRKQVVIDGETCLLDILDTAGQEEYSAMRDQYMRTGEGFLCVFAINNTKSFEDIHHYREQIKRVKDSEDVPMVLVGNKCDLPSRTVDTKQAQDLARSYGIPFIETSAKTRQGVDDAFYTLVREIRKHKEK
Sequence of KRAS-G12D (P01116 with tags, fused parts or gaps isoform P01116-2 G12D): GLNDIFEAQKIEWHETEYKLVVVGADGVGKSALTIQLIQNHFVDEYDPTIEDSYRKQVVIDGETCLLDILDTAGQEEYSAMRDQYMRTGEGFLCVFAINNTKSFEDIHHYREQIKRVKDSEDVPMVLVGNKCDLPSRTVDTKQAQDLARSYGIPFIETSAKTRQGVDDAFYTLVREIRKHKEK
Sequence of KRAS-G12C (C51S/C80L/C118S) (P01116 with tags, fused parts or gaps isoform P01116-2 G12C/C51S/C80L/C118S): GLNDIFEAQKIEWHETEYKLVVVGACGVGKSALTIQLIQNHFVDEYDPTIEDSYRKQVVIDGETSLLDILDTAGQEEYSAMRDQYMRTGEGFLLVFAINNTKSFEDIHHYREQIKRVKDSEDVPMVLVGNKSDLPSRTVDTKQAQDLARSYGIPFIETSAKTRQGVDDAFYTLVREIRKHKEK
Sequence of KRAS-G12V (P01116 with tags, fused parts or gaps isoform P01116-2 G12V): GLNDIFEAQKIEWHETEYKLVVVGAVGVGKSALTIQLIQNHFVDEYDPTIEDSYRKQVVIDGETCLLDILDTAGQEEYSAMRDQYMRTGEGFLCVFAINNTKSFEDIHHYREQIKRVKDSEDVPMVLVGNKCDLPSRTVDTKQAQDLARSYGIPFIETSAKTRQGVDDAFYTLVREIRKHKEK
Sequence of KRAS-G13D (P01116 with tags, fused parts or gaps isoform P01116-2 G13D): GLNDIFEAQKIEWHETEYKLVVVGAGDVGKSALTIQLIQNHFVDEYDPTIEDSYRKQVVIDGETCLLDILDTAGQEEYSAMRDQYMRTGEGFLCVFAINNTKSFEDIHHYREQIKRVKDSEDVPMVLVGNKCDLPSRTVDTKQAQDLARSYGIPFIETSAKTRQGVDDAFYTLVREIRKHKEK

Regarding `Cc1cc2[nH]ncc2c(-c2nccc3c2sc2nc(OC[C@@]45CCCN4C[C@H](F)C5)nc(NC45CC(O)(C4)C5)c23)c1C(F)(F)F` [Ex-187, 3-((2-(((2R,7aS)-2-fluoro-tetrahydro-1H-pyrrolizin-7a(5H)-yl)methoxy)-8-(6-methyl-5-(trifluorometh-yl)-1H-indazol-4-yl)pyrido [4′,3′:4,5]thieno[2,3-d]pyrimidin-4-yl)amino)-bicyclo[1.1.1]pentan-1-ol], the IC50 on KRAS-G12D (setting [2]) was 390 nM; on KRAS-G12V (setting [3]) it was 170 nM; with AsPC-1 cells (setting [4]), 3570 nM; in assay [1] (setting [5]), 72.6 nM; at KRAS-G13D (setting [6]), 223 nM; on KRAS-WT (setting [7]), 499 nM.
With `C[C@@]1(O)COCCN(c2nc(OC[C@@]34CCCN3C[C@H](F)C4)nc3sc4c(-c5c(-c6cccs6)c(Cl)cc6[nH]ncc56)nccc4c23)C1` [Ex-143, (6S)-4-(8-(6-chloro-5-(thiophen-2-yl)-1H-indazol-4-yl)-2-(((2R,7aS)-2-fluoro-tetrahydro-1H-pyr-rolizin-7a(5H)-yl)-methoxy)pyrido [4′,3′:4,5]thieno[2,3-d]pyrimidin-4-yl)-6-methyl-1,4-oxaze-pan-6-ol], the IC50 at KRAS-G12D (setting [2]) stood at 108 nM; at KRAS-G12V (setting [3]), 109 nM; with AsPC-1 cells (setting [4]), 330 nM; in assay [1] (setting [5]), 52.9 nM; at KRAS-G13D (setting [6]), 124 nM; at KRAS-WT (setting [7]) it was 197 nM.
With `Cc1cc2[nH]ncc2c(-c2nncc3c2sc2nc(OC[C@@]45CCCN4C[C@H](F)C5)nc(N4CCOC[C@@](C)(O)C4)c23)c1C(F)(F)F` [Ex-277, (6S)-4-(2-(((2R,7aS)-2-fluorotetrahydro-1H-pyrrolizin-7a(5H)-yl)methoxy)-8-(6-methyl-5-(trifluoromethyl)-1H-indazol-4-yl)pyrimido[5′,4′:4,5]thieno[2,3-d]pyridazin-4-yl)-6-methyl-1,4-oxazepan-6-ol], the 50% inhibitory concentration (IC50) at KRAS-G12D (setting [2]) was found to be 39.2 nM; on KRAS-G12V (setting [3]), 64.6 nM; in the assay on AsPC-1 cells (ASPC1, 2 h, KRAS-G12D, 2 hours) it was 1100 nM; in assay [1] (setting [5]), 184 nM; on KRAS-G13D (setting [6]) it was 38 nM; on KRAS-WT (setting [7]) it was 94.6 nM.
`Cc1cc2[nH]ncc2c(-c2ncnc3c2sc2nc(OC[C@@]45CCCN4C[C@H](F)C5)nc(N4CCOC[C@@](C)(O)C4)c23)c1C(F)(F)F` [Ex-276, (6S)-4-(7-(((2R,7aS)-2-fluorotetrahydro-1H-pyrrolizin-7a(5H)-yl)methoxy)-4-(6-methyl-5-(trifluoromethyl)-1H-indazol-4-yl)thieno[2,3-d:4,5-d′]dipyrimidin-9-yl)-6-methyl-1,4-oxazepan-6-ol]: the IC50 was 423 nM at KRAS-G12D (setting [2]); 312 nM at KRAS-G12V (setting [3]); 1810 nM in the assay on AsPC-1 cells (ASPC1, 2 h, KRAS-G12D, 2 hours); 124 nM in assay [1] (setting [5]); 461 nM at KRAS-G13D (setting [6]); 796 nM on KRAS-WT (setting [7]).
For `Cc1cc2[nH]ncc2c(-c2nccc3c2[se]c2nc(OC[C@@]45CCCN4C[C@H](F)C5)nc(N4CCOC[C@@](C)(O)C4)c23)c1C(F)(F)F` [Ex-288, (6S)-4-(2-(((2R,7aS)-2-fluorotetrahydro-1H-pyrrolizin-7a(5H)-yl)methoxy)-8-(6-methyl-5-(trifluoromethyl)-1H-indazol-4-yl)pyrido[4′,3′:4,5]selenopheno[2,3-d]pyrimidin-4-yl)-6-methyl-1,4-oxazepan-6-ol], the IC50 was determined as 34.6 nM against KRAS-G12D (KRAS G12D GNE IC50, nucleotide exchange); 25.9 nM on KRAS-G12V (KRAS G12V GNE IC50, nucleotide exchange); 374 nM with AsPC-1 cells (ASPC1, KRAS-G12D, 2 hours); 22 nM in assay [1]; 50.7 nM against KRAS-G13D; 69.1 nM against KRAS-WT (KRAS WT GNE IC50, nucleotide exchange).
In the case of `Cc1cc2[nH]ncc2c(-c2nccc3c2sc2nc(OC[C@@]45CCCN4C[C@H](F)C5)nc(NC4CCC4)c23)c1C(F)(F)F` [Ex-191, N-cyclobutyl-2-(((2R,7aS)-2-fluorotetrahydro-1H-pyrrolizin-7a(5H)-yl)methoxy)-8-(6-methyl-5-(trifluoromethyl)-1H-indazol-4-yl)pyrido [4′,3′:4,5]thieno[2,3-d] pyrimidin-4-amine], the IC50 was determined as 11100 nM at KRAS-G12D (setting [2]); 5630 nM at KRAS-G12V (setting [3]); 8560 nM in the assay on AsPC-1 cells (setting [4]); 423 nM in assay [1] (setting [5]); 3690 nM on KRAS-G13D (setting [6]); 11100 nM on KRAS-WT (setting [7]).
`Cc1cc2[nH]ncc2c(-c2nccc3c2sc2nc(OC[C@@]45CCCN4C[C@H](F)C5)nc(NC4CCOC4)c23)c1C(F)(F)F` (stereo partly drawn) [Ex-188, 2-(((2R,7aS)-2-fluoro-tetrahydro-1H-pyrrolizin-7a(5H)-yl)methoxy)-8-(6-methyl-5-(trifluoromethyl)-1H-indazol-4-yl)-N-(tetra-hydrofuran-3-yl)pyrido [4′,3′:4,5]thieno[2,3-d] pyrimidin-4-amine]: the IC50 at KRAS-G12D (setting [2]) amounted to 4950 nM; at KRAS-G12V (setting [3]) it was 753 nM; with AsPC-1 cells (setting [4]), 3660 nM; in assay [1] (setting [5]) it was 562 nM; on KRAS-G13D (setting [6]), 1250 nM; at KRAS-WT (setting [7]), 1860 nM.
Take `CC1(O)COCCN(c2nc(OCC34CCCN3CC(F)C4)nc3sc4c(-c5c(C6CC6)c(F)cc6[nH]ncc56)nccc4c23)C1` [Ex-47, (6S)-4-(8-(5-cyclopropyl-6-fluoro-1H-indazol-4-yl)-2-(((2R,7aS)-2-fluorotetrahydro-1H-pyrrolizin-7a(5H)-yl)methoxy)pyrido[4′,3′:4,5]thi-eno[2,3-d]pyrimidin-4-yl)-6-methyl-1,4-oxazepan-6-ol]: the IC50 at KRAS-G12D (setting [2]) worked out at 32 nM; at KRAS-G12V (setting [3]) it was 55 nM; in the assay with AsPC-1 cells (ASPC1, 2 h, KRAS-G12D, 2 hours), 385 nM; in assay [1] (setting [5]) it was 17.9 nM; at KRAS-G13D (setting [6]) it was 32.6 nM; on KRAS-WT (setting [7]), 101 nM.
As for `Cc1cc2[nH]ncc2c(-c2nccc3c2oc2nc(OC[C@]4(CN(C)C)CC4(F)F)nc(N4CCOC[C@@](C)(O)C4)c23)c1C(F)F` [Ex-292, (6S)-4-(8-(5-(difluoromethyl)-6-methyl-1H-indazol-4-yl)-2-(((R)-1-((dimethylamino)methyl)-2,2-difluorocyclopropyl)meth-oxy)pyrido[4′,3′:4,5]furo[2,3-d]pyrimidin-4-yl)-6-methyl-1,4-oxazepan-6-ol], the IC50 at KRAS-G12D (setting [2]) was 175 nM; on KRAS-G12V (setting [3]), 134 nM; in the assay with AsPC-1 cells (ASPC1, 2 h, KRAS-G12D, 2 hours), 2320 nM; in assay [1] (setting [5]), 76.9 nM; at KRAS-G13D (setting [6]), 308 nM; at KRAS-WT (setting [7]), 603 nM.

For orientation: IC50 means the concentration at which inhibition is half-maximal.
